Measured values: patent US7071178B2, “Use of vitamin D-derivatives in the treatment of osteoporosis and related bone disorders, as well as novel vitamin D3-derivatives” (Leo Pharmaceutical Products, Ltd., priority 2000, dated 2006)

Key:
OVX rats [1] = test: OVX rat model on osteoporosis: urine calcium; assay type: in vivo; set-up: key to Effect on urine calcium vs 1,25D3: <: less effect than the reference dose of 1,25D3 (0.25 ug/kg); <=: less or the same effect as the reference dose of 1,25D3 (0.25 ug/kg); =: same effect as the reference dose of 1,25D3 (0.25 ug/kg); =>: same or better effect as the reference dose of 1,25D3 (0.25 ug/kg); >: better effect than the reference dose of 1,25D3 (0.25 ug/kg); settings: oral 28 days
Text: (§1) Pharmacological Methods—OVX Rat Model on Osteoporosis
(§2) To study bone anabolic properties and the effects of the vitamin D analogues of the present invention in preventing or treating demineralisation of the skeleton in vivo, a 4 weeks OVX rat model was used:
(§3) An ovariectomized rat model (OVX model), orally dosed for 28 days is useful for screening of vitamin D analogues. In this model ovariectomy produces alterations in the cancellous network identical to those seen in the human skeleton during ageing and the menopause. Besides this the model and the following analyses can be performed under very standardised conditions. 1α,25(OH)2D3 is used as a reference compound.
(§4) Female Sprague Dawley rats weighing approximately 130 g (40–45 days old) were purchased from MB, Ejby, Denmark. The animals were fed a commercial diet and allowed free access to food and drinking water. The animals were split into groups receiving differential treatment.
(§5) The animals were anaesthetised and ovariectomized through a dorsal incision.
(§6) Treatment of OVX animals was started 2 weeks after ovariectomy.
(§7) The animals were dosed orally for 28 days. The oral dosage was by gavage 0.1 ml/100 g bodyweight. The bodyweight of each animal was recorded every day prior to oral dosing. On day 7, 14, 21 and 28 the animals were housed separately for 24 hours in metabolic cages for collection of urine. Urine was frozen at −20° C. for later calcium measurement.
(§8) Effect of Compound 145 compared to the reference dose of 1,25(OH)2D3 (1,25D3) (0.25 μg/kg) and compared to the OVX control group (shown in %) are shown in Tables 1 to 4.

OVX rats [2] = test: OVX rat model on osteoporosis: boneweight; assay type: in vivo; set-up: key to Anabolic effect on boneweight, Tibia, vs 1,25D3 / Anabolic effect on boneweight, Tibial Meta., vs 1,25D3 / Anabolic effect on boneweight, L4, vs 1,25D3 / Anabolic effect on boneweight, Femur, vs 1,25D3: <: less effect than the reference dose of 1,25D3 (0.25 ug/kg); <=: less or the same effect as the reference dose of 1,25D3 (0.25 ug/kg); =: same effect as the reference dose of 1,25D3 (0.25 ug/kg); =>: same or better effect as the reference dose of 1,25D3 (0.25 ug/kg); >: better effect than the reference dose of 1,25D3 (0.25 ug/kg); settings: for Anabolic effect on boneweight, Femur, vs 1,25D3 / Anabolic effect on boneweight, Femur, vs Ovx contr / Anabolic effect on boneweight, L4, vs 1,25D3 / Anabolic effect on boneweight, L4, vs Ovx contr / Anabolic effect on boneweight, Tibia, vs 1,25D3 / Anabolic effect on boneweight, Tibia, vs Ovx contr / Anabolic effect on boneweight, Tibial Meta., vs 1,25D3 / Anabolic effect on boneweight, Tibial Meta., vs Ovx contr: oral 28 days
Text: FIG. 1 is a graphic illustration of the effect on the weight of the lumbal vertebrae, L4, in rats according to the OVX rat model described herein, and wherein the animal groups received treatment according to the scheme below. A statistical analysis is shown below the graphic illustration. Differences between groups were investigated by the Kruskal-Wallis test, including a multiple comparison procedure: ns represents non-significant, nt represents not tested, and * represents p<0.05. Differences were considered significant at a p<0.05. Results are presented in the bar diagram as means+SD.
The animals were divided into 6 groups: • Group 1: Intact control, dosed Propylene glycol 0.1 ml/kg (Vehicle) • Group 2: OVX rats control, dosed Propylene glycol 0.1 ml/kg (Vehicle) • Group 3: OVX rats, dosed 1α,25(OH)2D3, […], dosed Compound 145, […]
as §1, §2, §3, §4, §5, §6, §7
Left and right femur, left and right tibia, lumbal vertebrae 3 and 4 (L3 and L4) were removed and cleaned for all soft- and connecting tissue. Left femur, left and right tibia and L4 were dried in an oven at 50–60° C. for at least 24 hours and immediately hereafter weighed. The bones were burned in an oven at 800° C. for 4 hours, dissolved in 1N HCl, and analysed for calcium content in a Hitachi 911 autoanalyser. Right femur and L3 were kept in 0.9% NaCl and frozen at −20° C. for later biomechanical testing performed by Jesper Skovhus Thomsen and Lis Mosekilde at Aarhus University, measuring various biomechanical parameters.
as §8

SMILES: C=C1C(=CC=C2CCCC3(C)C2CCC3C(C)CSc2ccc(C(C)(C)O)cc2)CC(O)CC1O [Compound 145, 1(S),3(R)-Dihydroxy-20(R)-(4-((1-hydroxy-1-methyl)ethyl)phenylthiomethyl)-9,10-seco-pregna-5(Z),7(E),10(19)-triene]
- Effect on urine calcium vs 1,25D3 (OVX rats [1]; 1 μg/kg, MTR/16): No
- Effect on urine calcium vs Ovx contr (OVX rats [1]; 1 μg/kg, MTR/16): −23%
- Effect on urine calcium vs 1,25D3 (OVX rats [1]; 10 μg/kg, MTR/16): <<<
- Effect on urine calcium vs Ovx contr (OVX rats [1]; 10 μg/kg, MTR/16): 104%
- Effect on urine calcium vs 1,25D3 (OVX rats [1]; 10 μg/kg, MTR/23): <<<
- Effect on urine calcium vs Ovx contr (OVX rats [1]; 10 μg/kg, MTR/23): 45%
- Effect on urine calcium vs 1,25D3 (OVX rats [1]; 25 μg/kg, MTR/27): <<
- Effect on urine calcium vs Ovx contr (OVX rats [1]; 25 μg/kg, MTR/27): 155%
- Effect on urine calcium vs 1,25D3 (OVX rats [1]; 50 μg/kg, MTR/23): <=
- Effect on urine calcium vs Ovx contr (OVX rats [1]; 50 μg/kg, MTR/23): 373%
- Effect on urine calcium vs 1,25D3 (OVX rats [1]; 50 μg/kg, MTR/27): =
- Effect on urine calcium vs Ovx contr (OVX rats [1]; 50 μg/kg, MTR/27): 750%
- Effect on urine calcium vs 1,25D3 (OVX rats [1]; 75 μg/kg, MTR/27): >=
- Effect on urine calcium vs Ovx contr (OVX rats [1]; 75 μg/kg, MTR/27): 777%
- Effect on urine calcium vs 1,25D3 (OVX rats [1]; 100 μg/kg, MTR/23): <=
- Effect on urine calcium vs Ovx contr (OVX rats [1]; 100 μg/kg, MTR/23): 463%
- Anabolic effect on boneweight, Femur, vs 1,25D3 (OVX rats [2]; 1 μg/kg, MTR/16): <=
- Anabolic effect on boneweight, Femur, vs Ovx contr (OVX rats [2]; 1 μg/kg, MTR/16): 6%
- Anabolic effect on boneweight, L4, vs 1,25D3 (OVX rats [2]; 1 μg/kg, MTR/16): <=
- Anabolic effect on boneweight, L4, vs Ovx contr (OVX rats [2]; 1 μg/kg, MTR/16): 9%
- Anabolic effect on boneweight, Tibia, vs 1,25D3 (OVX rats [2]; 1 μg/kg, MTR/16): <=
- Anabolic effect on boneweight, Tibia, vs Ovx contr (OVX rats [2]; 1 μg/kg, MTR/16): 6%
- Anabolic effect on boneweight, Tibial Meta., vs 1,25D3 (OVX rats [2]; 1 μg/kg, MTR/16): <
- Anabolic effect on boneweight, Tibial Meta., vs Ovx contr (OVX rats [2]; 1 μg/kg, MTR/16): 6%
- Anabolic effect on boneweight, Femur, vs 1,25D3 (OVX rats [2]; 10 μg/kg, MTR/16): >
- Anabolic effect on boneweight, Femur, vs Ovx contr (OVX rats [2]; 10 μg/kg, MTR/16): 10%
- Anabolic effect on boneweight, L4, vs 1,25D3 (OVX rats [2]; 10 μg/kg, MTR/16): >
- Anabolic effect on boneweight, L4, vs Ovx contr (OVX rats [2]; 10 μg/kg, MTR/16): 13%
- Anabolic effect on boneweight, Tibia, vs 1,25D3 (OVX rats [2]; 10 μg/kg, MTR/16): >
- Anabolic effect on boneweight, Tibia, vs Ovx contr (OVX rats [2]; 10 μg/kg, MTR/16): 8%
- Anabolic effect on boneweight, Tibial Meta., vs 1,25D3 (OVX rats [2]; 10 μg/kg, MTR/16): >
- Anabolic effect on boneweight, Tibial Meta., vs Ovx contr (OVX rats [2]; 10 μg/kg, MTR/16): 14%
- Anabolic effect on boneweight, Femur, vs 1,25D3 (OVX rats [2]; 10 μg/kg, MTR/23): >=
- Anabolic effect on boneweight, Femur, vs Ovx contr (OVX rats [2]; 10 μg/kg, MTR/23): 5%
- Anabolic effect on boneweight, L4, vs 1,25D3 (OVX rats [2]; 10 μg/kg, MTR/23): >=
- Anabolic effect on boneweight, L4, vs Ovx contr (OVX rats [2]; 10 μg/kg, MTR/23): 4%
- Anabolic effect on boneweight, Tibia, vs 1,25D3 (OVX rats [2]; 10 μg/kg, MTR/23): >=
- Anabolic effect on boneweight, Tibia, vs Ovx contr (OVX rats [2]; 10 μg/kg, MTR/23): 5%
- Anabolic effect on boneweight, Tibial Meta., vs 1,25D3 (OVX rats [2]; 10 μg/kg, MTR/23): <
- Anabolic effect on boneweight, Tibial Meta., vs Ovx contr (OVX rats [2]; 10 μg/kg, MTR/23): 8%
- Anabolic effect on boneweight, Femur, vs 1,25D3 (OVX rats [2]; 25 μg/kg, MTR/27): >
- Anabolic effect on boneweight, Femur, vs Ovx contr (OVX rats [2]; 25 μg/kg, MTR/27): 4%
- Anabolic effect on boneweight, L4, vs 1,25D3 (OVX rats [2]; 25 μg/kg, MTR/27): >
- Anabolic effect on boneweight, L4, vs Ovx contr (OVX rats [2]; 25 μg/kg, MTR/27): 9%
- Anabolic effect on boneweight, Tibia, vs 1,25D3 (OVX rats [2]; 25 μg/kg, MTR/27): >
- Anabolic effect on boneweight, Tibia, vs Ovx contr (OVX rats [2]; 25 μg/kg, MTR/27): 3%
- Anabolic effect on boneweight, Tibial Meta., vs 1,25D3 (OVX rats [2]; 25 μg/kg, MTR/27): >
- Anabolic effect on boneweight, Tibial Meta., vs Ovx contr (OVX rats [2]; 25 μg/kg, MTR/27): −2%
- Anabolic effect on boneweight, Femur, vs 1,25D3 (OVX rats [2]; 50 μg/kg, MTR/23): >>
- Anabolic effect on boneweight, Femur, vs Ovx contr (OVX rats [2]; 50 μg/kg, MTR/23): 14%
- Anabolic effect on boneweight, L4, vs 1,25D3 (OVX rats [2]; 50 μg/kg, MTR/23): >>
- Anabolic effect on boneweight, L4, vs Ovx contr (OVX rats [2]; 50 μg/kg, MTR/23): 15%
- Anabolic effect on boneweight, Tibia, vs 1,25D3 (OVX rats [2]; 50 μg/kg, MTR/23): >>
- Anabolic effect on boneweight, Tibia, vs Ovx contr (OVX rats [2]; 50 μg/kg, MTR/23): 13%
- Anabolic effect on boneweight, Tibial Meta., vs 1,25D3 (OVX rats [2]; 50 μg/kg, MTR/23): =
- Anabolic effect on boneweight, Tibial Meta., vs Ovx contr (OVX rats [2]; 50 μg/kg, MTR/23): 22%
- Anabolic effect on boneweight, Femur, vs 1,25D3 (OVX rats [2]; 50 μg/kg, MTR/27): >
- Anabolic effect on boneweight, Femur, vs Ovx contr (OVX rats [2]; 50 μg/kg, MTR/27): 6%
- Anabolic effect on boneweight, L4, vs 1,25D3 (OVX rats [2]; 50 μg/kg, MTR/27): >
- Anabolic effect on boneweight, L4, vs Ovx contr (OVX rats [2]; 50 μg/kg, MTR/27): 11%
- Anabolic effect on boneweight, Tibia, vs 1,25D3 (OVX rats [2]; 50 μg/kg, MTR/27): >
- Anabolic effect on boneweight, Tibia, vs Ovx contr (OVX rats [2]; 50 μg/kg, MTR/27): 4%
- Anabolic effect on boneweight, Tibial Meta., vs 1,25D3 (OVX rats [2]; 50 μg/kg, MTR/27): >
- Anabolic effect on boneweight, Tibial Meta., vs Ovx contr (OVX rats [2]; 50 μg/kg, MTR/27): −1%
- Anabolic effect on boneweight, Femur, vs 1,25D3 (OVX rats [2]; 75 μg/kg, MTR/27): >
- Anabolic effect on boneweight, Femur, vs Ovx contr (OVX rats [2]; 75 μg/kg, MTR/27): 8%
- Anabolic effect on boneweight, L4, vs 1,25D3 (OVX rats [2]; 75 μg/kg, MTR/27): >
- Anabolic effect on boneweight, L4, vs Ovx contr (OVX rats [2]; 75 μg/kg, MTR/27): 13%
- Anabolic effect on boneweight, Tibia, vs 1,25D3 (OVX rats [2]; 75 μg/kg, MTR/27): >
- Anabolic effect on boneweight, Tibia, vs Ovx contr (OVX rats [2]; 75 μg/kg, MTR/27): 7%
- Anabolic effect on boneweight, Tibial Meta., vs 1,25D3 (OVX rats [2]; 75 μg/kg, MTR/27): >>
- Anabolic effect on boneweight, Tibial Meta., vs Ovx contr (OVX rats [2]; 75 μg/kg, MTR/27): 9%
- Anabolic effect on boneweight, Femur, vs 1,25D3 (OVX rats [2]; 100 μg/kg, MTR/23): >
- Anabolic effect on boneweight, Femur, vs Ovx contr (OVX rats [2]; 100 μg/kg, MTR/23): 9%
- Anabolic effect on boneweight, L4, vs 1,25D3 (OVX rats [2]; 100 μg/kg, MTR/23): >
- Anabolic effect on boneweight, L4, vs Ovx contr (OVX rats [2]; 100 μg/kg, MTR/23): 12%
- Anabolic effect on boneweight, Tibia, vs 1,25D3 (OVX rats [2]; 100 μg/kg, MTR/23): >
- Anabolic effect on boneweight, Tibia, vs Ovx contr (OVX rats [2]; 100 μg/kg, MTR/23): 7%
- Anabolic effect on boneweight, Tibial Meta., vs 1,25D3 (OVX rats [2]; 100 μg/kg, MTR/23): =
- Anabolic effect on boneweight, Tibial Meta., vs Ovx contr (OVX rats [2]; 100 μg/kg, MTR/23): 24%
- bone anabolic effects (boneweight, biomechanical strength) compared to 1,25D3 (OVX rats [2]; summary of Tables 1 to 4, FIG. 1 and FIG. 2): comparable to or even better than 1,25D3
